System: Protein disulfide-thiol interchange activity of HeLa plasma membrane
Test: Protein disulfide-thiol interchange (RNAse activity with cCMP as substrate)
Assay type: biochemical, human
Experimental: Estimation of protein disulfide isomerase- (PDI) like activity. Two methods were employed to determine PDI or PDI-like activity.
In the first method, ribonuclease A activity was measured using a spectrophotometric assay based on cCMP as RNAse substrate. Scrambled RNAse ([…]) was incubated together with 0.45 mM cCMP in 50 Mm Tris-MES buffer, pH 6.5, at 30°C in a final volume of 3 ml. […] A variation of this assay was to preincubate scrambled RNAse with transitional endoplasmic reticulum for 20 min in the presence or absence of 1 µM all-trans retinol (using ethanol as control) and in the presence or absence of 1 µM reduced or oxidized glutathione or a mixture of both. After this 20 min of "reactivation" of RNAse, cCMP was added to a final concentration of 0.45 mM to initiate the reaction. The increase of the absorbance at 296 nm was recorded over 25 min and the concentrations of cCMP were determined (E = 0.19 mM^-1cm^-1). Spectrophotometric measurements were with a Hitachi U3210 spectrophotometer with a thermostatic cell compartment maintained at 30°C with continuous stirring.
Preparation of scrambled RNAse substrate. To prepare the oxidized, denatured RNAse substrate (scrambled RNAse), native RNAse A (Sigma, Type 1-AS from bovine pancreas) (30 µg/ml) was incubated 1 h at 35°C in 50 mM Tris-acetate, pH 8.6, containing 9 M urea and 130 mM DTT.
Protein concentration was estimated from spectrophotometric measurement at 280 nm using native RNAse A as standard. For preparation of scrambled RNAse, the reduced RNAse was diluted to 0.5 mg/ml with 0.1 M acetic acid. Solid urea was then added to a final concentration of 10 M after which 0.1 M sarcosine hydrochloride was added and the pH adjusted to 8.5 with 1 M Tris. The mixture then was incubated in the dark for 2-3 days during which time the protein was randomly oxidized. The scrambled product was recovered by acidification to pH 4 with glacial acetic acid and elution from Sephadex G-25 in 0.1 M acetic acid. Fractions containing protein were pooled, adjusted to pH 8 and stored at 4°C.

SMILES: COc1cc(CNC(=O)CCCC/C=C/C(C)C)ccc1O [capsaicin]
- Protein disulfide-thiol interchange activity: .95 nmoles/min/mg protein
